# Molecular target: T1, CCR2 (Homo sapiens, UniProt P41597)
# T1 construct: THP-1 human monocytic leukemic cell line, which expresses endogenous CCR2; endogenous in cells; host or cells: human peripheral blood mononuclear cells, human monocytes or THP-1 cells
# T1 sequence (P41597 1-360 isoform P41597-2): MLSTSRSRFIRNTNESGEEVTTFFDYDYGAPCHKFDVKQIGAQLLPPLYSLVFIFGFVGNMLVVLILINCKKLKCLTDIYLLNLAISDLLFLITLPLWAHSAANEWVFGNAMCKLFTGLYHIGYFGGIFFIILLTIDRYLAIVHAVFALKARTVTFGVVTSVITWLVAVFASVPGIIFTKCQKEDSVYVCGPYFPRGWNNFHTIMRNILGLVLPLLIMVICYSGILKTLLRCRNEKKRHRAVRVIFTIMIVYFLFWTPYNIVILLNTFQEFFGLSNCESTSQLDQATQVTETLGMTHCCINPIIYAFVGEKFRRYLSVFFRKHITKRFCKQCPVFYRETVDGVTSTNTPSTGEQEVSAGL
# Experiment: CCR2 binding: antagonism of 125I-MCP-1 binding (human PBMC / THP-1 whole cell)
# Conditions: n = 1 unless otherwise noted
# Method: Antagonism of MCP-1 Binding to Human PBMC
# Millipore filter plates (#MABVN1250) are treated with 100 μl of binding buffer (0.5% bovine serum albumin, 20 mM HEPES buffer and 5 mM magnesium chloride in RPMI 1640 media) for thirty minutes at room temperature. To measure binding, 50 μl of binding buffer, with or without a known concentration compound, is combined with 50 μl of ^125-I labeled human MCP-1 (to give a final concentration of 150 pM radioligand) and 50 μl of binding buffer containing 5×10^5 cells. Cells used for such binding assays can include human peripheral blood mononuclear cells isolated by Ficoll-Hypaque gradient centrifugation, human monocytes (Weiner et al., J. Immunol. Methods. 1980, 36, 89), or the THP-1 cell line which expresses the endogenous receptor. The mixture of compound, cells and radioligand are incubated at room temperature for thirty minutes. Plates are placed onto a vacuum manifold, vacuum applied, and the plates washed three times with binding buffer containing 0.5M NaCl. The plastic skirt is removed from the plate, the plate allowed to air dry, the wells punched out and counted. The percent inhibition of binding is calculated using the total counts obtained in the absence of any competing compound and the background binding determined by addition of 100 nM MCP-1 in place of the test compound.
# THP-1 Monocytic Cell Binding: Whole Cell-based Assay
# The human CCR2 binding assay was also established with the THP-1 human monocytic leukemic cell line, which expresses endogenous CCR2, using ^125I-human MCP-1 as the tracer ligand. Radioligand competition binding assays were used for assessment of binding affinity of test compounds to the CCR2 receptor. For radioligand competition studies, 100 μl containing 2.5×10^5 THP-1 cells/well (in assay buffer containing 50 mM HEPES, pH7.4, 5 mM MgCl2, 1 mM CaCl2 and 0.5% BSA) were added to 96-well assay plates containing the test compounds in 3-fold serial dilution, with final concentrations ranging from 5 μM to 100 pM. Subsequently, 50 μl ^125I-MCP-1 radioligand at a final concentration of 0.2 nM in assay buffer were added to the reaction. After a 90 minute incubation period at room temperature, the binding reaction was terminated by harvesting on GF/B filter plates (PerkinElmer Cat. No. 6005177) followed by washing with ice-cold wash buffer (50 mM HEPES, pH 7.4, 0.1% BSA, 0.5 M NaCl) to remove unbound ligand. After washing, the plate was dried for 45 minutes at 60° C. followed by addition of 40 μl MicroScint 20 scintillation fluid, sealed and analyzed by the Packard TopCount reader. Non-specific binding was determined in the presence of 10 μM (a molar excess of 5000 fold) of an in-house CCR2 small molecule antagonist (CCR2 IC50=2 nM). Specific binding of ^125I-MCP-1 was calculated as the difference between total and non-specific binding. The competition data was plotted as a percentage inhibition of radioligand specific bound in the absence of test compound (percent of total signal). After correcting for non-specific binding, IC50 values were determined. The IC50 is defined as the concentration of test compound required to reduce ^125I-MCP-1 specific binding by 50% and was calculated using the four parameter logistic equation to fit the normalized data.
row,Ki,SMILES
1,440 nM,"CC1(c2ccc(Cl)c(Cl)c2)CCCC=C1C(=O)O (racemic) [Example 1-01, 6-(3,4-dichlorophenyl)-6-methylcyclohex-1-enecarboxylic acid]"
2,3400 nM,"CC1(c2ccc(Cl)cc2)CCCC=C1C(=O)O (racemic) [Example 1-02, 6-(4-chlorophenyl)-6-methylcyclohex-1-enecarboxylic acid]"
3,250 nM,"C[C@@H]1CC=C(C(=O)O)[C@@](C)(c2cccc(-c3ccccc3)c2)C1 (racemic) [Example 1-03, (4RS,6RS)-6-(3-phenylphenyl)-4,6-dimethylcyclohex-1-enecarboxylic acid]"
4,69 nM,"Cc1ccc([C@@]2(C)C[C@H](C)CC=C2C(=O)O)cc1Cl (racemic) [Example 1-04, (4RS,6RS)-6-(3-chloro-4-methylphenyl)-4,6-dimethylcyclohex-1-enecarboxylic acid]"
5,3500 nM,"C[C@@H]1CC=C(C(=O)O)[C@@](C)(c2ccc(F)c(F)c2)C1 (racemic) [Example 1-05, (4RS,6RS)-6-(3,4-difluorophenyl)-4,6-dimethylcyclohex-1-enecarboxylic acid]"
6,3900 nM,"C[C@]1(c2ccc(Cl)c(Cl)c2)C[C@H](c2ccccc2)CC=C1C(=O)O (racemic) [Example 1-06, (4RS,6RS)-6-(3,4-dichlorophenyl)-6-methyl-4-phenylcyclohex-1-enecarboxylic acid]"
7,8200 nM,"Cc1ccc(C2(C)CCCC=C2C(=O)O)cc1C (racemic) [Example 1-08, 6-(3,4-dimethylphenyl)-6-methylcyclohex-1-enecarboxylic acid]"
8,3000 nM,"CC1(c2cccc(Cl)c2)CCCC=C1C(=O)O (racemic) [Example 1-09, 6-(3-chlorophenyl)-6-methylcyclohex-1-enecarboxylic acid]"
9,1600 nM,"CC1(c2cccc(C(F)(F)F)c2)CCCC=C1C(=O)O (racemic) [Example 1-10, 6-methyl-6-(3-(trifluoromethyl)-phenyl)cyclohex-1-enecarboxylic acid]"
10,80 nM,"C[C@@H]1CC=C(C(=O)O)[C@@](C)(c2ccc(Cl)c(Cl)c2)C1 (racemic) [Example 1-11, (4RS,6RS)-6-(3,4-dichlorophenyl)-4,6-dimethylcyclohex-1-enecarboxylic acid]"
11,280 nM,"C[C@@H]1CC=C(C(=O)O)[C@@](C)(c2cccc(C(F)(F)F)c2)C1 (racemic) [Example 1-12, (4RS,6RS)-4,6-dimethyl-6-(3-(trifluoromethyl)phenyl)cyclohex-1-enecarboxylic acid]"
12,11 nM,"C[C@@H]1CC=C(C(=O)O)[C@@](C)(c2ccc(Cl)c(C(F)(F)F)c2)C1 (racemic) [Example 1-13, (4RS,6RS)-6-(4-chloro-3-(trifluoromethyl)-phenyl)-4,6-dimethylcyclohex-1-enecarboxylic acid]"
13,740 nM,"C[C@@H]1CC=C(C(=O)O)[C@@](C)(c2cc(C(F)(F)F)cc(C(F)(F)F)c2)C1 (racemic) [Example 1-14, (4RS,6RS)-6-(3,5-bis(trifluoromethyl)-phenyl)-4,6-dimethylcyclohex-1-enecarboxylic acid]"
14,330 nM,"Cc1ccc([C@@]2(C)C[C@H](C)CC=C2C(=O)O)cc1C (racemic) [Example 1-15, (4RS,6RS)-6-(3,4-dimethylphenyl)-4,6-dimethylcyclohex-1-enecarboxylic acid]"
15,140 nM,"C[C@@H]1CC=C(C(=O)O)[C@@](C)(c2cccc3ccccc23)C1 (racemic) [Example 1-16, (4RS,6RS)-4,6-dimethyl-6-(napthalen-1-yl)cyclohex-1-enecarboxylic acid]"
16,2600 nM,"Cc1ccc([C@@]2(C)C[C@H](C)CC=C2C(=O)O)cc1 (racemic) [Example 1-17, (4RS,6RS)-4,6-dimethyl-6-p-tolylcyclohex-1-enecarboxylic acid]"

row,Ki,SMILES
1,930 nM,"Cc1cccc([C@@]2(C)C[C@H](C)CC=C2C(=O)O)c1 (racemic) [Example 1-18, (4RS,6RS)-4,6-dimethyl-6-m-tolylcyclohex-1-enecarboxylic acid]"
2,3700 nM,"Cc1cccc([C@@]2(C)C[C@H](C)CC=C2C(=O)O)c1C (racemic) [Example 1-19, (4RS,6RS)-6-(2,3-dimethylphenyl)-4,6-dimethylcyclohex-1-enecarboxylic acid]"
3,320 nM,"C[C@@H]1CC=C(C(=O)O)[C@@](C)(c2ccc3ccccc3c2)C1 (racemic) [Example 1-20, (4RS,6RS)-4,6-dimethyl-6-(naphthalen-2-yl)cyclohex-1-enecarboxylic acid]"
4,900 nM,"C[C@@H]1CC=C(C(=O)O)[C@@](C)(c2ccc(Cl)cc2)C1 (racemic) [Example 1-21, (4RS,6RS)-6-(4-chlorophenyl)-4,6-dimethylcyclohex-1-enecarboxylic acid]"
5,480 nM,"C[C@@H]1CC=C(C(=O)O)[C@@](C)(c2ccc(F)cc2)C1 (racemic) [Example 1-22, (4RS,6RS)-6-(4-fluorophenyl)-4,6-dimethylcyclohex-1-enecarboxylic acid]"
6,3700 nM,"C[C@@H]1CC=C(C(=O)O)[C@@](C)(c2cccc(F)c2)C1 (racemic) [Example 1-23, (4RS,6RS)-6-(3-fluorophenyl)-4,6-dimethylcyclohex-1-enecarboxylic acid]"
7,1000 nM,"C[C@@H]1CC=C(C(=O)O)[C@@](C)(c2ccccc2)C1 (racemic) [Example 1-24, (4RS,6RS)-4,6-dimethyl-6-phenylcyclohex-1-enecarboxylic acid]"
8,1100 nM,"Cc1cc([C@@]2(C)C[C@H](C)CC=C2C(=O)O)ccc1F (racemic) [Example 1-25, (4RS,6RS)-6-(4-fluoro-3-methylphenyl)-4,6-dimethylcyclohex-1-enecarboxylic acid]"
9,550 nM,"Cc1ccc(C)c([C@@]2(C)C[C@H](C)CC=C2C(=O)O)c1 (racemic) [Example 1-26, (4RS,6RS)-6-(2,5-dimethylphenyl)-4,6-dimethylcyclohex-1-enecarboxylic acid]"
10,130 nM,"Cc1cc([C@@]2(C)C[C@H](C)CC=C2C(=O)O)cc(C)c1Cl (racemic) [Example 1-27, (4RS,6RS)-6-(4-chloro-3,5-dimethylphenyl)-4,6-dimethylcyclohex-1-enecarboxylic acid]"
11,250 nM,"Cc1ccc([C@@]2(C)C[C@H](C)CC=C2C(=O)O)c2ccccc12 (racemic) [Example 1-28, (4RS,6RS)-4,6-dimethyl-6-(4-methyl-naphthalen-1-yl)cyclohex-1-enecarboxylic acid]"
12,300 nM,"Cc1cc(C)cc([C@@]2(C)C[C@H](C)CC=C2C(=O)O)c1 (racemic) [Example 1-29, (4RS,6RS)-6-(3,5-dimethylphenyl)-4,6-dimethylcyclohex-1-enecarboxylic acid]"
13,110 nM,"C[C@@H]1CC=C(C(=O)O)[C@@](C)(c2cc(Cl)cc(Cl)c2)C1 (racemic) [Example 1-30, (4RS,6RS)-6-(3,5-dichlorophenyl)-4,6-dimethylcyclohex-1-enecarboxylic acid]"
14,5800 nM,"C[C@H]1CCC(C(=O)O)[C@](C)(c2cccc(C(F)(F)F)c2)C1 (mixture of isomers) [Example 2, (2RS,4SR)-2,4-dimethyl-2-(3-(trifluoromethyl)phenyl)cyclohexanecarboxylic acid]"
15,5400 nM,"C[C@@H]1CC=C(C(=O)NS(C)(=O)=O)[C@@](C)(c2ccc(Cl)c(Cl)c2)C1 (racemic) [Example 3-01, (4RS,6RS)-6-(3,4-dichlorophenyl)-4,6-dimethyl-N-(methylsulfonyl)cyclohex-1-enecarboxamide]"

# — patent US8507559B2, “Cyclohexenyl modulators of chemokine receptor activity” (Bristol-Myers Squibb Company, priority 2008, dated 2013)
